Experimental data reported in patent publication US7608640B2, “Glycine betaine and its use” (priority 2001, dated 2009).
Several values for one entry are separate records, joined by “and”; a condition that tells them apart may be missing. Equal values may be shown once. Values belong to the compound of their own block, whether it stands above or below them.

Tests used:
[1] = system: arterial thrombosis induced by laser beam in the mesenteric microcirculation of the rat; test: Laser-induced thrombosis in the mesenteric microcirculation; assay type: in vivo
From the text: A/Principle of Laser-induced Thrombosis (Seiffge D. et al., 1989; Weichter W. et al., 1983).
In this model, lesion of the vascular wall is induced by a laser beam. This beam causes a limited lesion of the vascular endothelium (only 1 to 2 cells are destroyed). This laying bare of the sub-endothelium, which is a thrombogenetic surface, results in the adherence of platelets via […]. This adherence of platelets is followed by the activation thereof. They form pseudopods and secrete the content of their granules. This activation results in the appearance of glycoproteins IIb-IIIa which are necessary for the aggregation of the platelets between them. This lesion is induced in the mesenteric microcirculation of the rat. It is immediately followed by the formation of a thrombus (in a few seconds). This thrombus, which rapidly enlarges under the influence of the flow of blood, embolises before being formed again.
By this manes, the assessment of the effect of glycine betaine was conducted pharmacologically in conjunction with the study of two active molecules used as a reference; namely acetylsalicylic acid and heparin (of low molecular weight). The assessment also involved the activity of glycine betaine in relation to the prothrombotic effects induced by contrasting products.
Male Wistar rats were used for these tests. They weighed between 200 and 250 grams. After an 8-day stabilisation period, the rats were subjected to fasting for 12 hours. They were then anaesthetised, glycine betaine was administered subcutaneously, and the mesentery (laser) or vena cava (stasis) was opened at the end of the experiments.

bleeding time in rats = test: Induced haemorrhagic (bleeding) time, tail cut; assay type: in vivo, rat; conditions: for Bleeding time: rat, glycine betaine 5 mg/kg, acetylsalicylic acid 100 mg/kg, heparin 2 mg/kg; for B.T.C. (bleeding time caused): 5 mg/ml/kg; for Provoked haemorrhage: after 24 hours; for Induced haemorrhage: oral 50 mg/kg
Experimental: Induced Haemorrahgic Time IHT
(E. Dejana. Bleeding time in rats. Thrombosis. Rech. 1982) Blood samples are made before the test. The tail of anaesthetised rat, is dipped for 5 minutes in a water bath at 37° C. so as to provoke a dilatation of the peripheral vessels which are removed and cut at the end, the chronometer being started. The IHT is defined as being the time period comprised between the cutting of end tail and the end of the haemorrhage or bleeding. The end of haemorrhage is defined as the time where the last drop of blood is removed from the tail and no other drop is seen for 180 seconds. […]

coagulation factors = test: Biological balance (Quick time, ACT, fibrinogen, α2AP, AT III); assay type: in vivo, rat
[2] = system: coagulation (Fibrinogen, APTT, Prothrombin Time, Anti-Xa activity); test: Plasma fibrinogen, APTT, prothrombin time and anti-Xa in heparinized rat; assay type: in vivo; conditions: Example 37
From the text: This example investigated the effect of delayed betaine administration in an antidote type administration inhibited the bleeding time and volume of blood loss induced by heparin treatment in a rat. Twenty male Wistar rats were purchased from Charles River, France and were acclimated for one week prior to the tests. Each rat was weighed prior to testing (weights ranged from 240-340 g with a mean weight of 275 g) and divided into 2 groups of 10 animals each. One group received an injection of heparin (5 mg/kg) at T0. The second group received a heparin injection (5 mg/kg) at T0, and a betaine injection (10 mg/kg) at T0+30 minutes. Both groups were subjected to a bleeding test at T0+60 minutes. The testing was performed using the previously described methodology with slight modifications. The tails were sectioned at 5-8 mm from the extremity. After transection, the proximal end of the tail was placed in a tube and blood was permitted to drip freely into a reservoir of 3.8% citrate solution (1 ml) until bleeding stopped. Blood loss volumes were then determined using a 1000 μl pipette. At the end of the experiments, before euthanasia, blood was sampled by intracardiac puncture on Na-citrate (3.8%, 1:9) and centrifuged at 4000 rpm/min for 20 minutes in order to obtain Poor Platelet Plasma (PPP). Fibrinogen, APTT, Prothrombin Time (Quick) and Anti-Xa activity were determined using an Automatic Coagulation Laboratory ACL 200 (Instrumentation Laboratory, France). […] Betaine efficiency to reduce bleeding times was confirmed. The effect on the haemorrhage was also confirmed since there was a very significant reduction of the blood loss volumes when compared to the heparin group. The delayed administration of betaine after heparin treatment, designed to mimic an antidote mode of administration, almost restored the bleeding times and the volumes of blood loss in the 10 betaine-treated animals to normal.

[3] = rat, after laser firings, glycine betaine 5 mg/kg, acetylsalicylic acid 100 mg/kg, heparin 2 mg/kg
[4] = rat, glycine betaine 5 mg/kg, acetylsalicylic acid 100 mg/kg, heparin 2 mg/kg
[5] = heparin 5 mg/kg at T0, betaine 10 mg/kg at T0+30 minutes
[6] = 5 mg/ml/kg, Group I: injected 1 hour before
[7] = 5 mg/ml/kg, Group II: injected 2 hours before
[8] = 5 mg/ml/kg, Group III: injected 3 hours before
[9] = 5 mg/ml/kg, Group IV: injected 4 hours before
[10] = 24 hours after sub cutaneous 10 mg/kg
[11] = 24 hours after sub cutaneous administration, title 20 mg/kg, table line 10 mg/kg
[12] = 5 mg/kg/day, repeated administration on 5 days of treatment
[13] = betaine 10 mg/kg 30 minutes after heparin 5 mg/kg

Bleeding time (bleeding time in rats): 313.33 ± 20 s
Compound: Heparin
Duration of embolisation [1, 3]: 1 ± 0 min
Number of emboles or embolies [1, 3]: 2.67 ± 0.52
ACT (Activated cephaline time) (coagulation factors; [4]): 39.46 ± 1.36 s
AT III (Antithrombin III) (coagulation factors; [4]): 77.66 ± 1.52%
Fibrinogen (coagulation factors; [4]): 2.13 ± 0.25 g/L
QT (Quick time) (coagulation factors; [4]): 29.50 ± 0.52 s
α2AP (Alpha,2-antiplasmin) (coagulation factors; [4]): 29.4 ± 1.01%
APTT, Mean [2, 5]: >180 s
APTT, individual rats [2, 5]: >180 s
Anti-Xa, Mean [2, 5]: 1.37 IU/ml
Anti-Xa, individual rats [2, 5]: 1.35 IU/ml (2×) and 1.38 IU/ml (2×) and 1.37 IU/ml (2×) and 1.34 IU/ml and 1.41 IU/ml and 1.39 IU/ml (2×)
Fibrinogen, Mean [2, 5]: 1.82 g/L
Fibrinogen, individual rats [2, 5]: 2.15 g/L and 1.77 g/L and 2.1 g/L and 1.53 g/L and 1.62 g/L and 2.0 g/L and 1.55 g/L and 1.67 g/L and 1.57 g/L and 2.2 g/L
Quick (Prothrombin Time), Mean [2, 5]: 61.07 s
Quick (Prothrombin Time), individual rats [2, 5]: 52.3 s and 57.4 s and 55.3 s and 66.2 s and 66.0 s and 59.6 s and 64.6 s and 67.2 s and 62.2 s and 59.9 s

B.T.C. (bleeding time caused) (bleeding time in rats; Group I: injected 1 hour before the experiment): 105 ± 26.2 s
B.T.C. (bleeding time caused) (bleeding time in rats; Group II: injected 2 hours before the experiment): 145 ± 15.52 s
B.T.C. (bleeding time caused) (bleeding time in rats; Group III: injected 3 hours before the experiment): 115.5 ± 14.2 s
B.T.C. (bleeding time caused) (bleeding time in rats; Group IV: injected 4 hours before the experiment): 120 ± 10.13 s
Provoked Haemorrhage time (bleeding time in rats; 10 mg/kg subcutaneous): 105 s
Provoked haemorrhage (bleeding time in rats; 10 mg/kg subcutaneous): 114 ± 12.76 s
Provoked haemorrhage (bleeding time in rats; 20 mg/kg subcutaneous): 110 ± 13.22 s
Provoked Haemorrhage time (bleeding time in rats; 30 mg/kg subcutaneous): 112 s
Provoked Haemorrhage time (bleeding time in rats; 50 mg/kg subcutaneous): 115 s
Induced haemorrhage (bleeding time in rats; 1 hour): 120 ± 5 s
Induced haemorrhage (bleeding time in rats; 6 hours): 111 ± 3.6 s
Induced haemorrhage (bleeding time in rats; 24 hours): 113.33 ± 18.92 s
Induced haemorrhage (bleeding time in rats; 48 hours): 109 ± 8.54 s
Bleeding time (bleeding time in rats): 95 ± 5 s
Compound: C[N+](C)(C)CC(=O)O [Glycine betaine]
Duration of embolisation [1, 6]: 0.51 ± 0.5 min
Number of emboles [1, 6]: 1.8 ± 1.44
Number of firings [1, 6]: 3.49 ± 1.07
Duration of embolisation [1, 7]: 0.3 ± 0.23 min
Number of emboles [1, 7]: 1.4 ± 1.18
Number of firings [1, 7]: 3.0 ± 1.5
Duration of embolisation [1, 8]: 1.00 ± 0.5 min
Number of emboles [1, 8]: 1.99 ± 0.4
Number of firings [1, 8]: 2.50 ± 1.25
Duration of embolisation [1, 9]: 1.5 ± 0.6 min
Number of emboles [1, 9]: 2.2 ± 0.69
Number of firings [1, 9]: 2.7 ± 1.0
Embolisation time [1, 10]: 0 ± 0 min
Number of emboles [1, 10]: 1 +/− 0
Number of laser firing [1, 10]: 3.33 +/− 0.57
Embolisation time [1, 11]: 0 ± 0 min
Number of emboles [1, 11]: 0.66 +/− 0.57
Number of laser firing [1, 11]: 3.33 +/− 0.57
Embolisation time ([1]; oral 50 mg/kg, 1 hour): 0 ± 0 min
Number of laser firing ([1]; oral 50 mg/kg, 1 hour): 4 +/− 0
Embolisation time ([1]; oral 50 mg/kg, 6 hours): 1 ± 0 min
Number of emboles ([1]; oral 50 mg/kg, 6 hours): 2.33 +/− 0.57
Number of laser firing ([1]; oral 50 mg/kg, 6 hours): 3.66 +/− 0.57
Embolisation time ([1]; oral 50 mg/kg, 24 hours): 1 ± 0 min
Number of emboles ([1]; oral 50 mg/kg, 24 hours): 2.33 +/− 0.57
Number of laser firing ([1]; oral 50 mg/kg, 24 hours): 2.33 +/− 0.57
Number of emboles ([1]; oral 50 mg/kg, 48 hours): 4.33 +/− 0.57
Duration of embolisation [1, 3]: 1 ± 0 min
Number of emboles or embolies [1, 3]: 2 ± 0
ACT (coagulation factors; [12]): 39.3 ± 2.3 s
Fibrinogen (coagulation factors; [12]): 2.2 ± 0.1 g/L
Quick time (coagulation factors; [12]): 19.8 ± 1.2 s
ACT (Activated cephaline time) (coagulation factors; [4]): 39.9 ± 1.05 s
AT III (Antithrombin III) (coagulation factors; [4]): 89.5 ± 1.37%
Fibrinogen (coagulation factors; [4]): 1.7 ± 0.1 g/L
QT (Quick time) (coagulation factors; [4]): 16.9 ± 1.05 s
α2AP (Alpha,2-antiplasmin) (coagulation factors; [4]): 29.7 ± 0.68%
APTT prolongation despite betaine administration [2, 13]: up to 6 ×
Animals with normalized Prothrombin times [2, 13]: 8 out of 10
Fibrinogen level change versus heparin [2, 13]: −10%
Fibrinogen level change versus the control [2, 13]: −23%
Reduction of Anti-Xa activity, antidote group compared to the heparin group [2, 13]: 74%
